From patent US20040077601A1, “Methods and compositions relating to isoleucine boroproline compounds” (Point Therapeutics, Inc., priority 2002, published 2004)

Columns and labels:
[1] = test system: chemokine KC; assay: Serum levels of the chemokine KC by ELISA in mice after administration
[2] = target: serum DPP-IV (Mus musculus, UniProt P28843); assay: Serum DPP-IV activity in mice two hours after administration (indicator of bioavailability); type: in vivo; details: 0.2-, 2.0-, 20-, 200-μg doses, subcutaneous injection vs oral gavage, serum two hours later
Sequence of serum DPP-IV (P28843 37-760 limits assumed): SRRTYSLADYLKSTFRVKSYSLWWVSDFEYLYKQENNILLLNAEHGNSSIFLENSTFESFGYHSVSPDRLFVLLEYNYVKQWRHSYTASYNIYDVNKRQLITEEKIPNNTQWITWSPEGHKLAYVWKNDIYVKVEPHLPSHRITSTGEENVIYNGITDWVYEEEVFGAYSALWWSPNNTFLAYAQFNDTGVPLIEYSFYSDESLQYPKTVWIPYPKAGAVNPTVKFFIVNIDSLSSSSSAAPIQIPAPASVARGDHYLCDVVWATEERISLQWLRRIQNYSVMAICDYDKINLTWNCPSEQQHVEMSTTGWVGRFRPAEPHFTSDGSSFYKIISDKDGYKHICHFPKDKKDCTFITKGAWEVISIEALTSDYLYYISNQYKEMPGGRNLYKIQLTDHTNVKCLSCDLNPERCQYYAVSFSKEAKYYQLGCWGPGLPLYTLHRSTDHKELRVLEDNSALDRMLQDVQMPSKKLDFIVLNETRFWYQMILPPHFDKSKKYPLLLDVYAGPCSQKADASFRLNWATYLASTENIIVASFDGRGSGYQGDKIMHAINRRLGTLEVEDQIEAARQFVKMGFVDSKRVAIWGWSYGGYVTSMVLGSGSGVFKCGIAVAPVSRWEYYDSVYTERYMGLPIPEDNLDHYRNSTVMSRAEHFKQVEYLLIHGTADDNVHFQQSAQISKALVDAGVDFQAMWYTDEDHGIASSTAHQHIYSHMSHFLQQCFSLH

[3] = test system: WEHI 164 tumor cells; assay: WEHI 164 mouse tumor model (subcutaneous inoculation of 4×10^6 tumor cells); type: in vivo, mice; details: for Tumor sizes, subcutaneous compared to oral: day 20; for Tumor sizes (mean tumor volumes) on day 20 versus saline control: all 3 doses, twice daily day 2 to day 19, n=10; for Incidence of tumor rejection (%): recorded on day 20
Description: FIG. 2. Comparison of the anti-tumor activity of Ile-boroPro administered orally or by subcutaneous injection in the WEHI 164 mouse tumor model. Mice were inoculated subcutaneously with 4×10^6 tumor cells and administered Ile-boroPro twice daily from day 2 to day 19 after tumor inoculation, either by oral gavage (open bars) or subcutaneous injection (solid bars). Control mice received saline (hatched bar). The data represent mean tumor volumes±SEM (n=10) were recorded on day 20.
Mice were inoculated subcutaneously with 4×10^6 WEHI 164 tumor cells and administered 2-, 5- or 10-μg doses of Ile-boroPro twice daily from day 2 to […] after tumor inoculation, either by oral gavage or subcutaneous injection. Control mice received saline. […] The greater efficacy of subcutaneous administration was also reflected in the incidence of tumor rejection in mice receiving treatment with the various doses of Ile-boroPro (Table 2). […] It should be noted that tumor rejection was never observed in mice inoculated with WEHI 164 and treated with saline.

CCC(C)C(N)C(=O)N1CCCC1B(O)O (stereo not shown) [Ile-boroPro]
Time of maximal increases in serum KC levels after administration [1]: 2 h
Bioavailability judged from dose response of inhibition of serum DPP-IV, subcutaneous versus oral [2]: more bioavailable
Suppression of tumor growth, subcutaneous versus oral administration (tumor volumes on day 20) ([3]; 2-, 5- or 10-μg doses twice daily): more effective than oral administration in suppressing tumor growth
Tumor sizes, subcutaneous compared to oral ([3]; 2-μg dose twice daily, P<0.0005): significantly smaller
Tumor sizes, subcutaneous compared to oral ([3]; 5-μg dose twice daily, P<0.005): significantly smaller
Tumor sizes (mean tumor volumes) on day 20 versus saline control ([3]; oral gavage, P<0.05): significant reduction in tumor sizes
Incidence of tumor rejection (%) ([3]; oral, 10 μg twice daily day 2 to day 19, 2 separate experiments): caused tumor rejection
Tumor sizes (mean tumor volumes) on day 20 versus saline control ([3]; subcutaneous injection, P<0.00005): significant reduction in tumor sizes
Incidence of tumor rejection (%) ([3]; subcutaneous, 2 μg twice daily day 2 to day 19, one experiment): 60%
Incidence of tumor rejection (%) ([3]; subcutaneous, 5 μg twice daily day 2 to day 19, one experiment): 70%
